4 compounds from patent publication US12371456B2, “Proteins for the treatment of epithelial barrier function disorders” (Genevive, Inc., priority 2017, dated 2025) can be followed below.

Data set [1] deals with HCT8 enterocyte and HT29-MTX goblet cell lines. Briefly: Oris Cell Migration assay (epithelial cell wound healing). In kind it is cell-based, human. To be noted: 48 hours; SG-14 1 μg/ml, EGF 30 ng/ml, staurosporine 100 nM; FIG. 5. From the text:
The 96 well Oris Cell Migration assay containing plugs preventing cell attachment in the center of each well was used according to the manufacturer's instructions (Platypus Technologies, Madison, WI). The migration assay plates were warmed to room temperature prior to use and plugs were removed from 100% confluence wells prior to cell addition. The HCT8 enterocyte and HT29-MTX goblet cell lines were used at a 9:1 ratio with a total of 5×10^4 total cells added per well (4.5×10^4 HCT8 cells and 0.5×10^4 HT29-MTX cells). Cells were incubated at 37° C.+5% CO2 for 24 hours. Plugs were then removed from all control and sample wells. Control wells included cells treated with the diluent vehicle as the blank, 30 ng/ml epidermal growth factor (EGF) as the positive control, and 100 nM staurosporine as the negative control, all diluted in cRPMI. Sample wells contained SG-14 protein at a concentration of 1 μg/ml diluted in cRPMI. 100% and 0% wells were cultured in cRPMI. […] The green fluorescent viability dye […] was added to all wells at a concentration of […] in PBS containing 0.9 mM CaCl2) and 0.5 mM MgCl2, incubated for 30 min at 37° C.+5% CO2, the dye was removed and cells were washed in PBS containing 0.9 mM CaCl2) and 0.5 mM MgCl2 and fluorescence was measured. […] Samples were normalized between 100% and 0% samples and values expressed as a percent growth.

In data set [2] the test system is HCT8 enterocytes and HT29-MTX goblet cells (epithelial monolayer) co-cultured with U937 monocytes. Briefly: Co-culture trans-epithelial electrical resistance (TEER) assay, barrier disruption by heat killed E. coli. In kind it is cell-based, human. To be noted: staurosporine 100 nM, negative control.
Protocol: Assays were performed as described below in trans-well plates where co-cultures of multiple cell types were performed utilizing a permeable membrane to separate cells. In the apical (top) chamber, human colonic epithelial cells, consisting of a mixture of enterocytes and goblet cells, were cultured until cells obtained tight junction formation and barrier function capacity as assessed by measurement of trans-epithelial electrical resistance (TEER). In the basolateral chamber, monocytes were cultured separately. Epithelial cells were primed with inflammatory cytokines.
Cell culture. The HCT8 human enterocyte cell line (ATCC Cat. No. CCL-244) was maintained in RPMI-1640 medium supplemented with 10% fetal bovine serum, 100 IU/ml penicillin, 100 µg/ml streptomycin, 10 µg/ml gentamicin and 0.25 µg/ml amphotericin (cRPMI). HT29-MTX human goblet cells (Sigma-Aldrich (St. Louis, MO; Cat. No. 12040401) were maintained in DMEM medium with 10% fetal bovine serum, 100 IU/ml penicillin, 100 µg/ml streptomycin, 10 µg/ml gentamicin and 0.25 µg/ml amphotericin (cDMEM). Epithelial cells were passaged by trypsinization and were used between 5 and 15 passages following thawing from liquid nitrogen stocks. U937 monocytes (ATCC Cat. No. 700928) were maintained in cRPMI medium as a suspension culture, and split by dilution as needed to maintain cells between 5×10^5 and 2×10^6 cells/ml. U937 cells were used up to passage 18 following thawing from liquid nitrogen stocks.
Epithelial cell culture. A mixture of HCT8 enterocytes and HT29-MTX goblet cells were plated at a 9:1 ratio, respectively, in the apical chamber of the transwell plate as described previously (Berget et al., 2017, Int J Mol Sci, 18:1573; Beduneau et al., 2014, Eur J Pharm Biopharm, 87:290-298). […] Epithelial cells were trypsinized from culture flasks and viable cells determined by trypan blue counting. […]
Co-culture assay. […] Trans-epithelial electrical resistance (TEER) readings were measured after the IFN-γ treatment and were used as the pre-treatment TEER values. […]
Data set [3] concerns DSS model of inflammatory bowel disease. Briefly: DSS model: colon length and colon weight to length ratio. It counts as in vivo, C57BL/6 mice. Particulars: DSS treated mice. Here is the method:
Eight-week old C57BL/6 mice were housed 5 animals were cage and given food and water ad libitum for 7 days. Following the 7-day acclimation period, treatments were initiated concurrently with addition of 2.5% DSS to the drinking water. […] The mice were treated with 2.5% dextran sodium sulfate (DSS) in their drinking water for 6 days. Treatments were continued with SG-14 or […]-GLP2 twice a day (b.i.d.) in the morning and evening (every 8 and 16 hr) with i.p. injections at 50 nmoles/kg. Fresh 2.5% DSS drinking water was prepared every 2 days. Colon length was measured in mice included in the DSS model described in Example 7. […] The graphs in FIG. 10 and FIG. 11 represent data pooled from the single experiment (n=10).

On the set-up of data set [4]: species or system mice. Particulars: mouse, in vivo, ip.

As for `CN[C@@H]1C[C@H]2O[C@@](C)([C@@H]1OC)n1c3ccccc3c3c4c(c5c6ccccc6n2c5c31)C(=O)NC4` [staurosporine, reference compound], in data set [1], the “Wound healing (percent growth)” value is recorded as “suppressing cell proliferation”. For the same compound, the “Effect on TEER (control compound)” value in data set [2] was “drastic decrease in TEER”.

For “EGF: epidermal growth factor, positive control in wound healing assay”, the “Wound healing (percent growth)” value in data set [1] was “increasing proliferation”.

Take “Gly2-GLP2: a stable analog of glucagon-like peptide 2 (GLP2); positive control in DSS model (HGDGSFSDEMNTILDNLAARDFINWLIQTKITD; Glucagon-like peptide 2; UniProt P01275 146-178, looked up, variant A2G) [reference compound]”: in data set [3] (FIG. 10), the Colon length entry is “significant improvement in colon length”. For the same compound, the “Ratio between colon weight and length” value in data set [3] (FIG. 11) is given as “significant reduction”.

Turning to “fluorescently labeled bovine serum albumin: fluorescently labeled bovine serum albumin used for tracking after i.p. injection”, the “Time at which protein reached the colon after i.p. delivery” value in data set [4] was 6 h.
